Reference: patent US8088742B2, “Polyol-glycoside compositions for the skin” (Societe d'Exploitation de Produits pour les Industries …, priority 2002, dated 2012)

Legend:
[1] = tested on: skin (epidermis) in a normal volunteer; assay: In vivo measurement of the moisturization of the skin with Hydrascan; set-up: species or system human; details: for Degree of moisturization of the skin measured with Hydrascan, Cycle 1: stratum corneum + superficial epidermis / Degree of moisturization of the skin measured with Hydrascan, Cycle 2: superficial + middle epidermis / Degree of moisturization of the skin measured with Hydrascan, Cycle 3: entire epidermis: percentage increase relative to placebo zone, topical 20 mg/cm2, 8 h after application, mean of six volunteers; for Degree of moisturization of the skin measured with Hydrascan, Cycle 1: stratum corneum + superficial epidermis / Degree of moisturization of the skin measured with Hydrascan, Cycle 2: superficial + middle epidermis / Degree of moisturization of the skin measured with Hydrascan, Cycle 3: entire epidermis / effect on the degree of moisturization of the epidermis (in words): 3% in cream gel; for effect on the degree of moisturization of the epidermis (in words): 8 h after application
Description: A-In Vivo Measurement of the Moisturization of the Skin in a Normal Volunteer by Means of […] effect on the degree of moisturization of the skin of various polyol-glycosides according to the invention, of glyceryl glucoside and of various polyols was measured and compared in humans. […] This device comprises a micro-effusimeter connected to a flexible sensor and makes it possible to produce a thermal wave which propagates within the epidermis, and to register the variation in temperature during the pulse. […] 5% (weight/volume) of Lanol® 99 (isononyl isononanoate); 0.5% (weight/volume) of […]® HB (phenoxy-ethanol, methyl-, ethyl-, propyl-, butylparaben). A cream gel having the same composition but containing no test product is used as a placebo. The study is carried out on three groups of six volunteers, as a double-blind study, i.e. neither the experimenter nor the volunteer knows the identity of the test product. The following four skin zones are defined on the forearms of each volunteer: The products are applied topically at a rate of 20 mg/cm^2, the measurements being carried out 8 h after application. […] The degree of moisturization is measured by means of […]®, on each skin zone defined above, the values obtained for each of the three cycles being recorded and expressed as percentage increase in moisturization of the skin relative to the zone treated with the placebo.

[2] = tested on: normal human dermal fibroblast cultures; assay: In vitro measurement of the production of hyaluronic acid in fibroblast cultures; assay type: cell-based; details: 5 days of incubation; for effect on the amount of extracellular hyaluronic acid (in words): 0.01% and 0.1% (w/v)
Description: B—In Vitro Measurement of the Effect of the Polyol-Glycosides According to the Invention on the Production of Hyaluronic Acid
To confirm the moisturizing activity of the polyol-glycosides according to the invention, the effect of these products on the amount of hyaluronic acid was measured. It is in fact known that hyaluronic acid is a major non-sulfated glycosaminoglycan which plays an essential role in moisturizing the skin, by means of its ability to attach up to 1000 times its weight in water.
The amount of hyaluronic acid is measured in normal human dermal fibroblast cultures.
The cells are incubated for 5 days in the presence of the test products solubilized in the incubation medium.
At the end of this incubation, the extracellular media, into which the hyaluronic acid is secreted, are removed.
The hyaluronic acid is stained with a specific dye, STAINS ALL ((1-ethyl-2-[3-(1-ethylnaphtho[1,2-d]thiazolin-2-ylidene)-2-methylpropenyl]naphtho[1,2-d]thiazolium) bromide, provided by Sigma), which interacts with the hyaluronic acid to produce a change of absorption spectrum between 620 and 660 nm, observed by means of a spectrophotometer. A standard range of hyaluronic acid is effected in parallel.
The polyols and the polyol-glucosides are tested in aqueous solution at 0.01% and 0.1% (w/v).
D0: seeding of the fibroblasts (24-well culture plates, 15 300 cells/well);
D3: incubation of the products tested, diluted in the fibroblast incubation medium;
D8: removal of the fibroblast incubation media, assaying of the hyaluronic acid.
At the end of the 5 days of incubation in the presence of the products, the incubation media are removed and incubated in the presence of STAINS ALL. The colorimetric reaction is visualized by adding water.
The quantification is carried out by spectrophotometry for a wavelength of 630 nm.
A standard range of hyaluronic acid (0 to 12.5 μg/ml) is effected in parallel.
The results are expressed in μg/ml of extracellular hyaluronic acid.
The results which were obtained, expressed as percentage increase in the amount of extracellular hyaluronic acid relative to the control group, are reported in the following table: […]

[3] = tested on: human skin explant; assay: In vitro measurement of the synthesis of epidermal ceramides in human skin explant model; assay type: cell-based; details: for effect on the neosynthesis of ceramides 1 and 2 (in words): 24 hours on human skin explants; for percentage increase in the amount of ceramide 1 relative to the control group / percentage increase in the amount of ceramide 2 relative to the control group: topical 3% in cream gel (EGF 10 ng/ml in culture medium), 24 hours, 14C-acetate labeling
Description: C—In Vitro Measurement of the Xylityl Glucoside According to the Invention on the Synthesis of Epidermal Ceramides
The study is carried out in vitro in a human skin explant model. The products, formulated at 3% in a cream gel, are applied to the surface of the skin explants for 24 hours. The neosynthesis of the epidermal lipids is studied by radioactive labeling (carbon 14-labeled acetate) of the neosynthesized lipids, followed by thin layer chromatography to separate the various types of lipids and in particular the ceramides.
The xylityl glucoside according to example 1 of the invention, formulated at 3% in a cream gel comprising 2% of Sepigel® 305, 5% of Lanol 99, and qs of water.
Epidermal growth factor (EGF), known to increase the synthesis of ceramides, which constitutes a reference molecule for this test. The EGF is tested at 10 ng/ml in the skin explant culture medium.
A commercially available formulation containing lactic acid, which constitutes a reference for the test, lactic acid being known to increase the synthesis of ceramides.
The study is carried out on disks of human skin originating from cosmetic surgery (abdominoplasty, person). Disks 8 mm in diameter are produced using a hole punch and deposited onto culture inserts placed in culture wells containing an appropriate nutritive medium (MEM/M199 medium (¾, ¼, v/v) supplemented with penicillin (50 IU/ml, streptomycin (50 μg/ml), sodium bicarbonate (0.2% w/v), serum (2% v/v) and carbon 14-labeled acetate (1 μCi/ml)).
The products are tested by topical application (except for the EGF) for 24 hours.
At the end of the 24 hours of incubation, the skin explants are rinsed with phosphate buffered saline. For each disk of skin, the dermis is dissociated from the epidermis by controlled heat shock (1 min at 70° C.). The epidermal lipids are extracted by a partition between an organic phase (methanol/chloroform (1:2)) and an aqueous phase (0.25 M potassium chloride). The organic phase is then evaporated under vacuum and the residue is taken up in a chloroform/methanol (2:1) mixture.
The various epidermal lipids are then separated by thin layer chromatography (silica 60): chloroform/acetone/methanol (38:2:10); chloroform/acetone/methanol (40:5:5); chloroform/ethyl acetate/diethyl ether/methanol (36:10:3:1). The radioactivity of the fractions thus separated is counted with a radioactivity analyzer (Storm, Amersham).
The results are expressed as % variation relative to the control group.

[4] = tested on: skin; assay: Evaluation on the skin of acute skin irritation (Primary Cutaneous Irritation index); assay type: in vivo; details: for PCI index: Primary Cutaneous Irritation index; for Irritation classification: scale of the protocol in Journal Officiel de la République Francaise of Feb. 21, 1982
Description: The skin tolerance of the various polyol-glycosides was evaluated by means of a study of “evaluation on the skin of acute skin irritation”, carried out by an independent pharmaceutical and cosmetic consultancy-expertise company.
The Primary Cutaneous Irritation (PCI) index measurements, carried out according to the same protocol, are contained in the following table:
Each compound studied is classified, in view of the results obtained under the selected experimental conditions, nonirritant for the skin, with reference to the scale proposed in the protocol described in the Journal Officiel de la République Francaise [Official Journal of the French Republic] of Feb. 21, 1982.

Molecule	Degree of moisturization of the skin measured with Hydrascan, Cycle 1: stratum corneum + superficial epidermis [1]	Degree of moisturization of the skin measured with Hydrascan, Cycle 2: superficial + middle epidermis [1]	Degree of moisturization of the skin measured with Hydrascan, Cycle 3: entire epidermis [1]	effect on the amount of extracellular hyaluronic acid (in words) [2]	percentage increase in the amount of extracellular hyaluronic acid relative to the control group ([2]; concentration 0.01% (w/v))	percentage increase in the amount of extracellular hyaluronic acid relative to the control group ([2]; concentration 0.1% (w/v))	effect on the neosynthesis of ceramides 1 and 2 (in words) [3]	effect on the degree of moisturization of the epidermis (in words) [1]	percentage increase in the amount of ceramide 1 relative to the control group [3]	percentage increase in the amount of ceramide 2 relative to the control group [3]	PCI index [4]	Irritation classification [4]	increase in degree of moisturization greater than that obtained with glycerol ([1]; difference to glycerol across the epidermal layers)
OC[C@@H](O)[C@@H](O)CO [Erythritol, erythritol]	+9%	+9%	+9%	no effect	<10%	<10%	–	–	–	–	–	–	–
OCC(O)CO [Glycerol, glycerol]	–	–	–	no effect	–	–	not observed	–	–	–	–	–	–
OC[C@@H](O)[C@H](O)[C@@H](O)CO [Xylitol, xylitol]	<5%	<5%	<5%	no effect	<10%	<10%	–	no effect	–	–	–	–	–
O=C[C@H](O)[C@@H](O)[C@H](O)CO [Xylose, xylose]	<5%	<5%	<5%	–	–	–	–	no moisturizing effectiveness	–	–	–	–	–
EGF: Epidermal growth factor, known to increase the synthesis of ceramides, reference molecule for this test	–	–	–	–	–	–	act, but less effectively	–	166.1%	152.3%	–	–	–
Erythrityl Glucoside [Example 2]	+18%	+11%	+12%	–	+64%	<10%	–	–	–	–	0	Nonirritant	–
Glyceryl Glucoside [Comparative example]	<5%	<5%	<5%	does not increase	<10%	<10%	–	–	–	–	0	Nonirritant	–
Xylityl Glucoside [Example 1]	+28%	+33%	+30%	increase	+158%	+161%	significantly increases	very substantially increases	295.7%	236.5%	0	Nonirritant	14 to 20%
